Assay results from PMC2697495 (The Journal of pharmacy and pharmacology, 2008).
Marks after values point to notes of the source that are not given here.

How the values were obtained:
[1] = target: endogenous β-glucuronidase, human lung microsomes (Homo sapiens, UniProt P08236); assay: Estradiol glucuronide hydrolysis by human lung microsomes; settings: lung microsomes 0.5 mg/ml; without saccharolactone; E-3-G 100 μM, E-17-G 200 μM; n=3
[2] = tested on: human intestinal microsomes; assay: Estradiol glucuronide formation in 6 hours by human intestinal microsomes; format: in vitro ADME; settings: for Apparent nmoles formed in 6 hours: intestinal microsomes 0.5 mg protein/ml, β-estradiol 100 μM and UDPGA, mean of triplicate; for Predicted actual nmoles formed in 6 hours: intestinal microsomes, apparent formed plus degraded
[3] = Estradiol glucuronide stability in phosphate buffer; settings: 50 mM phosphate buffer pH 7.5, 37 °C, no enzyme; without saccharolactone; E-3-G 100 μM, E-17-G 200 μM; n=3
[4] = target: T1, endogenous β-glucuronidase, pooled human liver microsomes (Homo sapiens, UniProt P08236); assay: Estradiol glucuronide hydrolysis; settings: for percent glucuronide remaining after 6 hours: pHLM 0.5 mg/ml, E-3-G 100 μM, E-17-G 200 μM, n=3; for Nmoles degraded as a % of nmoles formed: pHLMs; for Nmoles degraded in 6 hours: pHLMs 0.5 mg protein/ml, estradiol glucuronide without UDPGA
T1 sequence (P08236 23-651): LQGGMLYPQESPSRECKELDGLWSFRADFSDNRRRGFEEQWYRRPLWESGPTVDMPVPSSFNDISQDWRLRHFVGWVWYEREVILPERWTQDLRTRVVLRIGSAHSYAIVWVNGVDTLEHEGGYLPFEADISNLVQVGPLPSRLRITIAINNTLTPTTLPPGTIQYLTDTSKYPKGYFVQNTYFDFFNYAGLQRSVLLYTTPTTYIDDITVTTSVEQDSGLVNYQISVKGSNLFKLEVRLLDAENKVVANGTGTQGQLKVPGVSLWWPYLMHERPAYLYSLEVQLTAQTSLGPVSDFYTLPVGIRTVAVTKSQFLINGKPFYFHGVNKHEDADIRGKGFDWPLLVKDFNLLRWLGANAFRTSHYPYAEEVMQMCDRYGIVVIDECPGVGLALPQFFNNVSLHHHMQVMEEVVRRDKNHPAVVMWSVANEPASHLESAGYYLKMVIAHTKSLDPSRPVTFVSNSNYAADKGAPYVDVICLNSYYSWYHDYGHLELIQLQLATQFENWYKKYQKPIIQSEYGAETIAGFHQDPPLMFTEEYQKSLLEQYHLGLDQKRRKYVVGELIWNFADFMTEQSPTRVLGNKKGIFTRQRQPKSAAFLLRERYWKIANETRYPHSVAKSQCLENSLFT

[5] = tested on: endogenous β-glucuronidase, HEK293 vector control; assay: Estradiol glucuronide hydrolysis by HEK293 vector control cell microsomes; format: in vitro ADME, human; settings: HEK293 control 0.25 mg/ml; without saccharolactone; E-3-G 100 μM, E-17-G 200 μM; n=3
[6] = tested on: endogenous β-glucuronidase, human intestinal microsomes; assay: Estradiol glucuronide hydrolysis by human intestinal microsomes; settings: for Nmoles degraded as a % of nmoles formed: intestinal microsomes; for Nmoles degraded in 6 hours: intestinal microsomes 0.5 mg protein/ml, estradiol glucuronide without UDPGA; for percent glucuronide remaining after 6 hours: intestine microsomes 0.5 mg/ml, without saccharolactone, E-3-G 100 μM, E-17-G 200 μM, n=3
[7] = tested on: pooled human liver microsomes (pHLMs); settings: pHLMs 0.5 mg protein/ml; β-estradiol 100 μM and UDPGA; mean of triplicate
[8] = tested on: endogenous β-glucuronidase, human kidney microsomes; assay: Estradiol glucuronide hydrolysis by human kidney microsomes; settings: for Nmoles degraded as a % of nmoles formed: kidney microsomes; for Nmoles degraded in 6 hours: kidney microsomes 0.5 mg protein/ml, estradiol glucuronide without UDPGA; for percent glucuronide remaining after 6 hours: kidney microsomes 0.5 mg/ml, without saccharolactone, E-3-G 100 μM, E-17-G 200 μM, n=3
[9] = tested on: human kidney microsomes; assay: Estradiol glucuronide formation in 6 hours by human kidney microsomes; format: in vitro ADME; settings: for Apparent nmoles formed in 6 hours: kidney microsomes 0.5 mg protein/ml, β-estradiol 100 μM and UDPGA, mean of triplicate; for Predicted actual nmoles formed in 6 hours: kidney microsomes, apparent formed plus degraded
[10] = tested on: microsomes; settings: 50 μg alamethicin per mg microsomal protein, ref Fisher et al 2000; cited from earlier work

C[C@]12CC[C@@H]3c4ccc(O[C@@H]5O[C@H](C(=O)O)[C@@H](O)[C@H](O)[C@H]5O)cc4CC[C@H]3[C@@H]1CC[C@@H]2O [E-3-G, estradiol 3-glucuronide]
percent glucuronide remaining after 6 hours [1]: 85±6%
Apparent nmoles formed in 6 hours [2]: 16.7 nmol
Predicted actual nmoles formed in 6 hours [2]: 16.7 nmol
percent glucuronide remaining after 6 hours [3]: 101±5%
percent glucuronide remaining after 6 hours ([4]; with 10 mM saccharolactone): 84±2 ^a %
percent glucuronide remaining after 6 hours ([4]; without saccharolactone): 82±1 ^a^, ^b %
Nmoles degraded as a % of nmoles formed [4]: 9.30%
Nmoles degraded in 6 hours [4]: 0.36 nmol
percent glucuronide remaining after 6 hours [5]: 102±4%
Nmoles degraded as a % of nmoles formed [6]: 0%
Nmoles degraded in 6 hours [6]: 0 nmol
percent glucuronide remaining after 6 hours [6]: 104±3%
Apparent nmoles formed in 6 hours [7]: 3.51 nmol
Nmoles degraded as a % of nmoles formed [8]: 0%
Nmoles degraded in 6 hours [8]: 0 nmol
percent glucuronide remaining after 6 hours [8]: 104±1 ^a^, ^b %
Apparent nmoles formed in 6 hours [9]: 2.99 nmol
Predicted actual nmoles formed in 6 hours [9]: 2.99 nmol

C[C@]12CC[C@@H]3c4ccc(O)cc4CC[C@H]3[C@@H]1CC[C@@H]2O[C@@H]1O[C@H](C(=O)O)[C@@H](O)[C@H](O)[C@H]1O [E-17-G, estradiol 17-glucuronide]
percent glucuronide remaining after 6 hours [1]: 92±6%
Apparent nmoles formed in 6 hours [2]: 0.58 nmol
Predicted actual nmoles formed in 6 hours [2]: 0.58 nmol
percent glucuronide remaining after 6 hours [3]: 102±13%
percent glucuronide remaining after 6 hours ([4]; with 10 mM saccharolactone): 84±3%
percent glucuronide remaining after 6 hours ([4]; without saccharolactone): 86±2 ^b %
Nmoles degraded in 6 hours [4]: 0.29 nmol
Nmoles degraded as a % of nmoles formed ([4]; listed as Estradiol-17-Glucuronide): 19%
Nmoles degraded as a % of nmoles formed ([4]; listed as estradiol-17 glucuronide): 19%
percent glucuronide remaining after 6 hours [5]: 104±3%
Nmoles degraded as a % of nmoles formed [6]: 0%
Nmoles degraded in 6 hours [6]: 0 nmol
percent glucuronide remaining after 6 hours [6]: 110±4 ^b %
Apparent nmoles formed in 6 hours [7]: 1.23 nmol
Nmoles degraded as a % of nmoles formed [8]: 0%
Nmoles degraded in 6 hours [8]: 0 nmol
percent glucuronide remaining after 6 hours [8]: 104±3%
Apparent nmoles formed in 6 hours [9]: 1.11 nmol
Predicted actual nmoles formed in 6 hours [9]: 1.11 nmol

alamethicin
conjugation rate relative to that in absence of alamethicin [10]: 2 to 3 times
